These results are taken from patent US8129398B2 (priority 2008, dated 2012).

This assay concerns the target T1, HIV-integrase (Human immunodeficiency virus type 1 group M subtype B, UniProt P12497).
T1 construct: Recombinant integrase (0.26 ng) was incubated with the beads
In words: HIV-Integrase Inhibition Activity (SPA bead integration assay with P33 labeled target DNA). In kind it is biochemical. The following applies: recombinant integrase, class symbols; read-out: in vitro activity. An outline of the steps: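 Strand integration read as bead-proximity CPM after P33 target DNA (0.1 fmol) and inhibitor were added to washed integrase–substrate DNA complexes on SPA beads. Enzyme bound 90 min at 37° C; EDTA (10 mM final) terminated reaction; IC50 graded A/B/C.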
As to `CN(C)C(=O)C(=O)NC12CCC(CC1)Cn1c2nc(C(=O)NCc2ccccc2-c2ccccc2)c(O)c1=O` [Example 387], the IC50 was under 10 nM.

Regarding `O=C(NC12CCC(CC1)Cn1c2nc(C(=O)NCc2ccc(F)cc2)c(O)c1=O)c1ncccn1` [Example 311, 7,10-Ethanopyrimido[1,2-a]azepine-2-carboxamide, N-[(4-fluorophenyl)methyl]-4,6,7,8,9,10-hexahydro-3-hydroxy-4-oxo-10-[(2-pyrimidinylcarbonyl)amino]-], the IC50 is under 10 nM.

As for `Cc1c(CN(C)C(=O)C(=O)N(C)C23CCC(CC2)Cn2c3nc(C(=O)NCc3ccc(F)cc3)c(O)c2=O)cnn1C` [Example 171, N-((1,5-Dimethyl-1H-pyrazol-4-yl)methyl)-N′-(2-((4-fluorobenzyl)carbamoyl)-3-hydroxy-4-oxo-6,7,8,9-tetrahydro-7,10-ethanopyrimido[1,2-a]azepin-10(4H)-yl)-N,N′-dimethylethanediamide], the IC50 was under 10 nM.

With `O=C(NC12CCC(CC1)Cn1c2nc(C(=O)NCc2ccc(F)cc2)c(O)c1=O)c1ccc2nccn2c1` [Example 239, 7,10-Ethanopyrimido[1,2-a]azepine-2-carboxamide, N-[(4-fluorophenyl)methyl]-4,6,7,8,9,10-hexahydro-3-hydroxy-10-[(imidazo[1,2-a]pyridin-6-ylcarbonyl)amino]-4-oxo-], the IC50 is under 10 nM.

As to `CN(C)C(=O)C(=O)NC12CCCC(Cn3c1nc(C(=O)NCc1ccc(F)cc1)c(O)c3=O)C2` (stereo not drawn) [Example 186, Ethanediamide, N′-[2-[[[(4-fluorophenyl)methyl]amino]carbonyl]-7,8,9,10-tetrahydro-3-hydroxy-4-oxo-7,11-methano-4H-pyrimido[1,2-a]azocin-11(6H)-yl]-N,N-dimethyl-], the IC50 is under 10 nM.

As for `Cc1cccc(S(=O)(=O)NC23CCC(CC2)Cn2c3nc(C(=O)NCc3ccc(F)cc3)c(O)c2=O)c1` [Example 391], the IC50 was under 10 nM.

Take `O=C(NC12CCC(CC1)Cn1c2nc(C(=O)NCc2ccc(F)cc2)c(O)c1=O)C(=O)N1CCN(C(=O)C2CCCO2)CC1` (stereo not drawn) [Example 74, N-(4-Fluorobenzyl)-3-hydroxy-4-oxo-10-((oxo(4-(tetrahydro-2-furanylcarbonyl)-1-piperazinyl)acetyl)amino)-4,6,7,8,9,10-hexahydro-7,10-ethanopyrimido[1,2-a]azepine-2-carboxamide]: the IC50 was under 10 nM.

As for `CN(C(=O)c1ccncc1)C12CCC(CC1)Cn1c2nc(C(=O)NCc2ccc(F)cc2)c(O)c1=O` [Example 310, 7,10-Ethanopyrimido[1,2-a]azepine-2-carboxamide, N-[(4-fluorophenyl)methyl]-4,6,7,8,9,10-hexahydro-3-hydroxy-10-[methyl(4-pyridinylcarbonyl)amino]-4-oxo-], the IC50 is under 10 nM.

On to `CN(C)C(=O)C(=O)NC12CCC(CC1)Cn1c2nc(C(=O)NCCc2cccs2)c(O)c1=O` [Example 354], for which the IC50 was 10 to 100 nM.

In the case of `C[C@@H]1CN(C(=O)C(=O)NC23CCC(CC2)Cn2c3nc(C(=O)NCc3ccc(F)cc3)c(O)c2=O)C[C@H](C)O1` [Example 64, 10-((((2R,6S)-2,6-Dimethyl-4-morpholinyl)(oxo)acetyl)amino)-N-(4-fluorobenzyl)-3-hydroxy-4-oxo-4,6,7,8,9,10-hexahydro-7,10-ethanopyrimido[1,2-a]azepine-2-carboxamide], the IC50 is under 10 nM.

Consider `CNC1c2nc(C(=O)NCc3ccc(F)cc3)c(O)c(=O)n2CC2CCC1C2` (stereo not drawn) [Example 9, 7,10-Methano-4H-pyrimido[1,2-a]azocine-2-carboxamide, N-[(4-fluorophenyl)methyl]-6,7,8,9,10,11-hexahydro-3-hydroxy-11-(methylamino)-4-oxo-], for which the IC50 was over 100 nM.

For `Cn1ccnc1CN1CCN(C(=O)C(=O)NC23CCC(CC2)Cn2c3nc(C(=O)NCc3ccc(F)cc3)c(O)c2=O)CC1` [Example 137, N-(4-Fluorobenzyl)-3-hydroxy-10-(((4-((1-methyl-1H-imidazol-2-yl)methyl)-1-piperazinyl)(oxo)acetyl)amino)-4-oxo-4,6,7,8,9,10-hexahydro-7,10-ethanopyrimido[1,2-a]azepine-2-carboxamide], the IC50 was under 10 nM.

On to `CN(CCF)C(=O)C(=O)NC12CCC(CC1)Cn1c2nc(C(=O)NCc2ccc(F)cc2)c(O)c1=O` [Example 52, N′-(2-((4-Fluorobenzyl)carbamoyl)-3-hydroxy-4-oxo-6,7,8,9-tetrahydro-7,10-ethanopyrimido[1,2-a]azepin-10(4H)-yl)-N-(2-fluoroethyl)-N-methylethanediamide], for which the IC50 is under 10 nM.

`COC(=O)c1sccc1S(=O)(=O)N1CCN(C(=O)C(=O)NC23CCC(CC2)Cn2c3nc(C(=O)NCc3ccc(F)cc3)c(O)c2=O)CC1` [Example 147, Methyl 3-((4-(((2-((4-fluorobenzyl)carbamoyl)-3-hydroxy-4-oxo-6,7,8,9-tetrahydro-7,10-ethanopyrimido[1,2-a]azepin-10(4H)-yl)amino) (oxo)acetyl)-1-piperazinyl)sulfonyl)-2-thiophenecarboxylate]: the IC50 is under 10 nM.

For `O=C(NC12CCC(CC1)Cn1c2nc(C(=O)NCc2ccc(F)cc2)c(O)c1=O)NS(=O)(=O)c1ccccc1` [Example 330, 7,10-Ethanopyrimido[1,2-a]azepine-2-carboxamide, N-[(4-fluorophenyl)methyl]-4,6,7,8,9,10-hexahydro-3-hydroxy-4-oxo-10-[[[(phenylsulfonyl)amino]carbonyl]amino]-], the IC50 is under 10 nM.

Turning to `CS(=O)(=O)N1CCCC[C@H]1C(=O)NC12CCC(CC1)Cn1c2nc(C(=O)NCc2ccc(F)cc2)c(O)c1=O` [Example 266, 7,10-Ethanopyrimido[1,2-a]azepine-2-carboxamide, N-[(4-fluorophenyl)methyl]-4,6,7,8,9,10-hexahydro-3-hydroxy-10-[[[(2S)-1-(methylsulfonyl)-2-piperidinyl]carbonyl]amino]-4-oxo-], the IC50 is under 10 nM.

As to `CS(=O)(=O)NC12CCC(Cn3c1nc(C(=O)NCc1ccc(F)cc1)c(O)c3=O)C2` (stereo not drawn) [Example 192, 7,10-Methanopyrimido[1,2-a]azepine-2-carboxamide, N-[(4-fluorophenyl)methyl]-4,6,7,8,9,10-hexahydro-3-hydroxy-10-[(methylsulfonyl)amino]-4-oxo-], the IC50 is under 10 nM.

Consider `COc1cccc(CNC(=O)c2nc3n(c(=O)c2O)CC2CCC3(NC(=O)C(=O)N(C)C)CC2)c1OC` [Example 381], for which the IC50 is under 10 nM.

Consider `CCOC(=O)C(=O)NC12CCC(CC1)Cn1c2nc(C(=O)NCc2ccc(F)cc2)c(O)c1=O` [Example 83, Ethyl((2-((4-fluorobenzyl)carbamoyl)-3-hydroxy-4-oxo-6,7,8,9-tetrahydro-7,10-ethanopyrimido[1,2-a]azepin-10(4H)-yl)amino)(oxo)acetate], for which the IC50 was under 10 nM.

For `O=C(NC12CCC(CC1)Cn1c2nc(C(=O)NCc2ccc(F)cc2)c(O)c1=O)c1ccc(C(F)(F)F)nc1` [Example 323, 7,10-Ethanopyrimido[1,2-a]azepine-2-carboxamide, N-[(4-fluorophenyl)methyl]-4,6,7,8,9,10-hexahydro-3-hydroxy-4-oxo-10-[[[6-(trifluoromethyl)-3-pyridinyl]carbonyl]amino]-], the IC50 is under 10 nM.

On to `Cc1noc(C)c1S(=O)(=O)N1CCN(C(=O)C(=O)NC23CCC(CC2)Cn2c3nc(C(=O)NCc3ccc(F)cc3)c(O)c2=O)CC1` [Example 146, 10-(((4-((3,5-Dimethyl-4-isoxazolyl)sulfonyl)-1-piperazinyl)(oxo)acetyl)amino)-N-(4-fluorobenzyl)-3-hydroxy-4-oxo-4,6,7,8,9,10-hexahydro-7,10-ethanopyrimido[1,2-a]azepine-2-carboxamide], for which the IC50 was under 10 nM.

Turning to `CN(C)C(=O)C(=O)NC12CCC(CC1)Cn1c2nc(C(=O)NCCCc2ccc(Cl)c(Cl)c2)c(O)c1=O` [Example 131, N′-(2-((3-(3,4-Dichlorophenyl)propyl)carbamoyl)-3-hydroxy-4-oxo-6,7,8,9-tetrahydro-7,10-ethanopyrimido[1,2-a]azepin-10(4H)-yl)-N,N-dimethylethanediamide], the IC50 is 10 to 100 nM.

For the compound `CC(C)CNC(=O)c1nc2n(c(=O)c1O)CC1CCC2(NC(=O)C(=O)N(C)C)CC1` [Example 341], the IC50 is over 100 nM.

For `C=C[C@@H]1C[C@]1(NS(C)(=O)=O)C(=O)NC12CCC(CC1)Cn1c2nc(C(=O)NCc2ccc(F)cc2)c(O)c1=O` [Example 278, 7,10-Ethanopyrimido[1,2-a]azepine-2-carboxamide, 10-[[[(1R,2S)-2-ethenyl-1-[(methylsulfonyl)amino]cyclopropyl]carbonyl]amino]-N-[(4-fluorophenyl)methyl]-4,6,7,8,9,10-hexahydro-3-hydroxy-4-oxo-], the IC50 is under 10 nM.

On to `CS(=O)(=O)NC12CCC(CC1)Cn1c2nc(C(=O)NCc2ccc(F)cc2)c(O)c1=O` [Example 21, N-(4-Fluorobenzyl)-3-hydroxy-10-((methylsulfonyl)amino)-4-oxo-4,6,7,8,9,10-hexahydro-7,10-ethanopyrimido[1,2-a]azepine-2-carboxamide], for which the IC50 is under 10 nM.

Regarding `CN(C)C(=O)C(=O)NC12CCC(CC1)Cn1c2nc(C(=O)NCc2ccc(F)cc2-c2ccccc2)c(O)c1=O` [Example 307, Ethanediamide, N′-[2-[[[(5-fluoro/[1,1′-biphenyl]-2-yl)methyl]amino]carbonyl]-6,7,8,9-tetrahydro-3-hydroxy-4-oxo-7,10-ethanopyrimido[1,2-a]azepin-10(4H)-yl]-N,N-dimethyl-], the IC50 is under 10 nM.

As for `O=C(NCc1ccc(F)cc1)c1nc2n(c(=O)c1O)CC1CCC2(NC(=O)C2CCOCC2)CC1` [Example 32, N-(4-Fluorobenzyl)-3-hydroxy-4-oxo-10-((tetrahydro-2H-pyran-4-ylcarbonyl)amino)-4,6,7,8,9,10-hexahydro-7,10-ethanopyrimido[1,2-a]azepine-2-carboxamide], the IC50 is under 10 nM.
